Assay results reported in patent US20250099433A1, “COMPOSITION AND METHOD FOR TREATMENT OF GRAM NEGATIVE BACTERIAL INFECTION” (The Research Foundation for the State University of New York, priority 2021, published 2025).
In brackets after ≈: the same amount, converted by molar mass. Several values for one entry are separate records, joined by “and”; a condition that tells them apart may be missing. Equal entries are not always repeated. Entries after “also recorded” stand apart in the source; their conditions may differ. Where two headings read alike, the source gives them in different places.

How the values were obtained:
[1] = test system: FabZ* E. coli; assay type: cell-based, Escherichia coli; conditions: for PAE (h) 4x, FabZ*: 4xMIC for 1 h; for PAE (h) 4x, FabZ* / PAE (h) 16x, FabZ*: 1:1000 dilution; for PAE (h) 16x, FabZ*: 16xMIC for 1 h; for PAE in FabZ* E. coli: MIC multiple not stated or 1x-16xMIC
From the text: FIG. 4. Post-antibiotic effect of the ecLpxC inhibitors on wild-type and FabZ* E. coli.
This included use of an E. coli strain (FabZ*) containing a hyperactive mutant of the fatty acid biosynthesis O-hydroxyacyl-ACP enzyme (FabZ), and determination of PAEs for wild-type E. coli in the presence of sub-MIC concentrations of macrolides.

[2] = test system: wild-type E. coli (K12 MG1655); assay: PAE in wild-type E. coli in the presence of sub-MIC azithromycin; assay type: cell-based, Escherichia coli; conditions: 16xMIC, 37° C.
From the text: FIG. 6. Post-antibiotic effect in the presence of sub-MIC azithromycin.
The PAE measurements were repeated for wild-type E. coli in the presence of sub-MIC levels of the protein synthesis inhibitor azithromycin.

[3] = test system: FabZ*, hyperactive FabZ strain (L85P); assay: microbe, parasite or virus in culture; assay type: cell-based, Escherichia coli; conditions: for MIC: Escherichia coli, read-out: MIC (μM) FabZ*
[4] = test system: E. coli strain (K-12, MG1655); assay: MIC by microbroth dilution, wild-type E. coli; assay type: cell-based, Escherichia coli; conditions: wild-type E. coli K-12 MG1655
[5] = test system: wild-type E. coli (K-12 MG1655); assay: Post-antibiotic effect (PAE) in wild-type E. coli; assay type: cell-based, Escherichia coli; conditions: for PAE (h) 4x, Wild-type: 4xMIC for 1 h; for PAE (h) 4x, Wild-type / PAE (h) 16x, Wild-type: 1:1000 dilution; for PAE (h) 16x, Wild-type: 16xMIC for 1 h; for PAE in wild-type E. coli: MIC multiple not stated or 4x and 16xMIC
From the text: FIG. 4. Post-antibiotic effect of the ecLpxC inhibitors on wild-type and FabZ* E. coli. […] PAE data for wild-type E. coli are in panels (a) PT805, (c) PT810 and (e) CHIR-090, and for FabZ* E. coli in (b) PT805, (d) PT810 and (f) CHIR-090.
PAE data for wild-type E. coli are in panels (a) PT805, (c) PT810 and (e) CHIR-090, and for FabZ* E. coli in (b) PT805, (d) PT810 and (f) CHIR-090.

[6] = biological target: T1, paLpxC (Pseudomonas aeruginosa (strain ATCC 15692 / DSM 22644 / CIP 104116 / JCM 14847 / LMG 12228 / 1C / PRS 101 / PAO1), UniProt P47205); assay: Spin column (Penefsky) residence time assay on paLpxC; assay type: binding; conditions: 37° C.
T1 sequence (P47205 1-299): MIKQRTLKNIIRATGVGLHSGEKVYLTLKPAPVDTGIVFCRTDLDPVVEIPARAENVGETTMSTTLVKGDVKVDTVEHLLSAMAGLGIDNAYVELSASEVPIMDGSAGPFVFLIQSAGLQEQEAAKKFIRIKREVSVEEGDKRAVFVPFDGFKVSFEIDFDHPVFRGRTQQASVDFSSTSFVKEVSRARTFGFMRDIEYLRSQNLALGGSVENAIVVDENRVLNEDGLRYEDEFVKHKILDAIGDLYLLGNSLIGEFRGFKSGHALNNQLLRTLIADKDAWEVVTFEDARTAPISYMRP
Procedure: FIG. 14. Spin-column assay. A spin-column assay was used to quantify the residence time of inhibitors on paLpxC at 37° C. […] Samples were then subjected to size exclusion chromatography at different times using a Spin-Trap G-25 column (800×g for 2 min). […] Preincubated solutions of enzyme (10 μM) and inhibitor (10 or 20 μM) were diluted 200-fold into a solution of PT855 (1 μM) at 37° C. Aliquots of this solution were withdrawn at various times and subjected to centrifugal gel filtration chromatography using PD SpinTrap™ G-25 columns. The fluorescence of the eluate was quantified, and the data were fit to a single exponential equation to obtain koff (FIG. 14, Tables 4 and 5).
Inhibitor Residence Time Measurements using a Spin Column Assay. […] Subsequently, 10 μL of the incubation mixture was diluted into 2 mL of the same buffer containing 1 μM of PT855, and 100 μL of this mixture was then aliquoted at different time points and loaded onto a PD SpinTrap™ G-25 column (Cytiva) that had been equilibrated with buffer prior to sample loading. […] The fluorescence intensities corresponding to loading diluted EI without the fluorescent competitor and loading the competitor alone were measured separately to determine the dynamic range and endpoint of the assay. […] Rates were calculated by fitting the change in fluorescence intensity over time to a one-phase association equation in GraphPad Prism.

[7] = biological target: T1, paLpxC; assay: biochemical; assay type: binding
[8] = test system: P. aeruginosa PAO1; assay: Time-kill assays in P. aeruginosa PAO1; conditions: PAO1, 4x, 8x and 16xMIC, CAMH media, 37° C.
Procedure: Time-kill assays. […] The experimental data points are the mean values from triplicate, independent measurements, and the error bars represent the standard deviation from the mean.
Time-Kill Assays. […] Cultures were shaken at 37° C. for 6 h, and 100 μL aliquots were taken at each 1 h time interval and plated in serial dilutions in a Mueller-Hinton agar plate.

[9] = test system: P. aeruginosa PAO1; assay: MIC by microbroth dilution, P. aeruginosa PAO1; conditions: Pseudomonas aeruginosa, PAO1, read-out: MIC (μM) (PAO1)
[10] = test system: P. aeruginosa PAO1; assay: Post-antibiotic effect (PAE) in P. aeruginosa PAO1; conditions: 37° C.
Procedure: Post-antibiotic effect of the paLpxC inhibitors on wild-type P. aeruginosa. […] The experimental data points are the mean values from triplicate, independent measurements, and the error bars represent the standard deviation from the mean.
After incubating the plates overnight at 37° C., CFUs were enumerated, and the PAE values were calculated using a standard method where the time for the bacteria to recover 1 log post drug washout compared to the control was determined (FIG. 17, Table 6).
Post-antibiotic Effect (PAE). PAEs were determined using P. aeruginosa PAO1. […] The compound was washed out by diluting the culture 1000-fold into fresh CAMH-II medium, and the regrowth of bacteria was monitored by taking 100 μL aliquots each hour and plating serial dilutions on Muller-Hinton agar plates.

[11] = test system: efflux-pump mutant strain (ΔMexABCDXY) (paEP); assay: MIC by microbroth dilution, efflux-pump mutant P. aeruginosa; conditions: Pseudomonas aeruginosa, read-out: MIC (μM) (paEP)
From the text: Bacterial Strains. […] The efflux-pump deficient P. aeruginosa strain (ΔMexABCDXY), N150, was derived from PAO1.
Minimum Inhibitory Concentration (MIC) Measurements.

[12] = test system: wild-type E. coli; assay: MIC of azithromycin after pre-exposure of wild-type E. coli to 16xMIC inhibitor; assay type: cell-based, Escherichia coli; conditions: for MIC: Escherichia coli

Row | Structure (SMILES) | PAE (h) 4x, FabZ* [1] | PAE (h) 16x, FabZ* [1] | PAE in FabZ* E. coli [1] | PAE (h) 4x, Wild-type [5] | PAE (h) 16x, Wild-type [5] | PAE in wild-type E. coli [5] | MIC [3] | MIC ([4]; Escherichia coli) | further results
1 | Cn1nnnc1SCC1=C(C(=O)O)N2C(=O)[C@@H](NC(=O)[C@H](O)c3ccccc3)[C@H]2SC1 [Cefamandole] | 0 h | 0 h | failed to generate a PAE; also recorded: neither cefamandole nor trimethoprim showed a PAE | 0 h | 0 h | failed to generate a PAE; also recorded: neither cefamandole nor trimethoprim showed a PAE | – | – | PAE (h) (sub-MIC AZ) 16x(0.2) ([2]; then media with 0.2xMIC azithromycin): 0 h; PAE (h) (sub-MIC AZ) 16x(0.4) ([2]; then media with 0.4xMIC azithromycin): 0 h; MIC (μM) FabZ* ([3]; hyperactive FabZ strain (L85P)): 1.6 µM (≈ 0.74 µg/mL); MIC [4]: 6.25 µM (≈ 2.89 µg/mL)
2 | CC[C@H]1OC(=O)[C@H](C)[C@@H](O[C@H]2C[C@@](C)(OC)[C@@H](O)[C@H](C)O2)[C@H](C)[C@@H](O[C@@H]2O[C@H](C)C[C@H](N(C)C)[C@H]2O)[C@](C)(O)C[C@@H](C)C(=O)[C@H](C)[C@@H](O)[C@]1(C)O [Erythromycin] | 0.8 ± 0.2 h | 1.5 ± 0.4 h | 0.8 ± 0.05 h and 0.7 to 1.4 h | 0.7 ± 0.1 h | 1.4 ± 0.4 h | 0.8 ± 0.05 h and 0.7 to 1.4 h | 6.25 µM (≈ 4.59 µg/mL) | 50 µM (≈ 36.7 µg/mL) | –
3 | COc1ccc(-c2ccc(CNC3(C(=O)NO)CCS(=O)(=O)CC3)cc2)c(F)c1 [PT920, 4-(((2′-fluoro-4′-methoxy-[1,1′-biphenyl]-4-yl)methyl)amino)-N-hydroxytetrahydro-2H-thiopyran-4-carboxamide 1,1-dioxide] | – | – | – | – | – | – | – | – | tR (min) (Spin column assay) ([6]; direct displacement): 79 ± 24 min and 79.0 ± 24.0 min; k (min^−1), spin-column assay ([6]; first-order fit): 0.013 ± 0.004 min⁻¹; Ki ([7]; 37° C., fluorescence competition): 0.0379 ± 0.024 nM; tR (min) Fluorescence assay ([7]; 37° C., tR = 1/koff): 32.0 ± 4.8 min; koff ([7]; read-out: Koff (s^−1)): 0.00053 ± 7e-05 s⁻¹; kon ([7]; read-out: Kon (μM^−1s^−1)): 16.6 ± 8.5 µM⁻¹ s⁻¹; reduction of the starting log CFU/mL of the bacterial culture [8]: more than 3 logs; MIC [9]: 0.4 µM (≈ 0.169 µg/mL); PAE (h) 4x ([10]; PAO1, 4xMIC for 1 h): 1.0 ± 0.1 h; PAE (h) 8x ([10]; PAO1, 8xMIC for 1 h): 1.3 ± 0.2 h; PAE (h) 16x ([10]; PAO1, 16xMIC for 1 h): 1.7 ± 0.2 h; MIC [11]: 0.03 µM (≈ 0.0127 µg/mL)
4 | COc1cc(Cc2cnc(N)nc2N)cc(OC)c1OC [Trimethoprim] | 0 h | 0 h | failed to generate a PAE; also recorded: neither cefamandole nor trimethoprim showed a PAE | 0 h | 0 h | failed to generate a PAE; also recorded: neither cefamandole nor trimethoprim showed a PAE | 2.5 µM (≈ 0.726 µg/mL) | 2.5 µM (≈ 0.726 µg/mL) | –
5 | CC[C@H]1OC(=O)[C@H](C)[C@@H](O[C@H]2C[C@@](C)(OC)[C@@H](O)[C@H](C)O2)[C@H](C)[C@@H](O[C@@H]2O[C@H](C)C[C@H](N(C)C)[C@H]2O)[C@](C)(O)C[C@@H](C)CN(C)[C@H](C)[C@@H](O)[C@]1(C)O [azithromycin] | – | – | – | – | – | – | – | – | MIC ([12]; bacteria pre-exposed to 16xMIC ecLpxC inhibitor, read-out: MIC of azithromycin after pre-exposure to ecLpxC inhibitor): 3.25 µM; MIC ([12]; no pre-exposure, read-out: MIC of azithromycin, control): 12 µM; MIC of azithromycin after pre-exposure to cefamandole ([12]; bacteria pre-exposed to 16x cefamandole): 6.2 µM; fold decrease of azithromycin MIC after ecLpxC inhibitors ([12]; pre-treatment with 16xMIC ecLpxC inhibitors): 4 fold; fold decrease of azithromycin MIC after cefamandole ([12]; pre-treatment with cefamandole): 2 fold
